This passage reports IC50 results from patent publication US20240300944A1, “NOVEL UREA DERIVATIVE COMPOUND AS RON INHIBITOR” (LG CHEM, LTD., priority 2021, published 2024).

The target of one assay is cMET (Homo sapiens, UniProt P08581). The assay can be described thus: Inhibitory activity against MET (cMET), TR-FRET kinase assay. It counts as biochemical. Particulars: cMET enzyme. Here is the method: In addition, in order to measure the enzyme activity inhibition for cMET, the evaluation was performed in the same manner as the enzyme activity inhibition measurement experiment for the RON.
Specifically, the compound was prepared to a concentration of 1 mM with 100% DMSO and was diluted 10 times in a stepwise manner through 3-fold dilution. 2 ul of the compound diluted in a stepwise manner was added to a 96-well-plate containing 48 ul of a 1× kinase reaction buffer (50 mM HEPES (pH 7.4), 0.05% BSA, 0.005% Tween-20, 1 mM DTT, 0.5 mM MnCl2, 20 mM MgCl2).
The cMET protein was diluted to a concentration of 263 nM with a cMET storage buffer (50 mM Tris-HCl (pH 7.5), 150 mM NaCl, 0.05% Brij35, 1 mM DTT, 10% Glycerol), and then diluted again to a concentration of 2 nM with a 1× kinase reaction buffer. As a substrate cocktail, a MET-specific substrate mixture (5 uM TK peptide, […]) at a concentration 2 times the final reaction concentration.
Thereafter, a 384-well-plate was prepared, and 2.5 μl of each of the diluted compounds of Examples was added to a corresponding well of experimental group wells, and 2.5 μl of a 4% DMSO solution was dispensed into high control wells and low control wells.
(§1) Thereafter, 2.5 μL of 2 nM cMET was dispensed into the high control wells and the experimental group wells, and 2.5 μL of a 1× kinase reaction buffer was added to the low control wells, and the […] and the reaction buffer were centrifuged at room temperature for 40 seconds at 1000 RPM, and then incubated at room temperature for 20 to 30 minutes. Then, 5 μL of a substrate cocktail (2×) was dispensed into all wells, centrifuged at room temperature for 40 seconds at 1000 RPM, and then incubated at room temperature for 60 minutes. Thereafter, 5 μL of 90 mM EDTA was added to all wells to terminate the reaction, and then incubated again at room temperature for 5 minutes. Thereafter, 5 μL of a 4× phosphotyrosine antibody (Perkin Elmer) containing europium was added to all wells, and then incubated at room temperature for 60 minutes. After the incubation, the 384-well-plate was read with a Vison plate reader. At this time, the excitation wavelength was 340 nm, and the emission wavelength was 620 nm and 665 nm. The IC50 value of the compound of each Example was derived using the GraphPd Prism7 program.
A general note: TR-FRET usually uses a lanthanide donor and a delayed reading to cut background.

The target in a further assay is RON (Homo sapiens, UniProt Q04912). The assay can be described thus: Inhibitory activity against RON, TR-FRET kinase assay. To be noted: RON enzyme. The class given is biochemical. As for the experimental part:
In order to measure the inhibitory activity of each of the compounds of Examples against RON, the IC50 of each of the compounds was measured using a Time-Resolved Fluorescence Energy Transfer Chemistry (TR-FRET).
Specifically, the compound was prepared to a concentration of 1 mM with 100% DMSO and was diluted 10 times in a stepwise manner through 3-fold dilution. 2 ul of the compound diluted in a stepwise manner was added to a 96-well-plate containing 48 ul of a 1× kinase reaction buffer (50 mM HEPES (pH 7.4), 0.01% Tween-20, 5 mM DTT, 0.5 mM Na3VO4, 2 mM EGTA, 10 mM MgCl2).
The RON protein was diluted to a concentration of 49.3 nM with an RON storage buffer (50 mM Tris-HCl (pH 7.5), 150 mM NaCl, 0.5 mM EDTA, 0.02% Triton X-100), and then diluted again to a concentration of 0.4 nM with a 1× kinase reaction buffer. As a substrate cocktail, a RON-specific substrate mixture (40 uM ULight-labeled Poly GT, 100 nM ATP) at a concentration 2 times the final reaction concentration.
Thereafter, a 384-well-plate was prepared, and 2.5 ul of each of the diluted compounds of Examples was added to a corresponding well of experimental group wells, and 2.5 ul of a 4% DMSO solution was dispensed into high control wells and low control wells.
as §1, with “of 0.4” for “of 2”, “nM RON” for “nM cMET”, “of 30” for “of 90”

What is called IC50 is the concentration that inhibits the measured activity by half. Lower therefore signals greater potency.

A value given as a limit tells only on which side of the number the result lay.

Chain of RON (Q04912 25-1400, species assumed): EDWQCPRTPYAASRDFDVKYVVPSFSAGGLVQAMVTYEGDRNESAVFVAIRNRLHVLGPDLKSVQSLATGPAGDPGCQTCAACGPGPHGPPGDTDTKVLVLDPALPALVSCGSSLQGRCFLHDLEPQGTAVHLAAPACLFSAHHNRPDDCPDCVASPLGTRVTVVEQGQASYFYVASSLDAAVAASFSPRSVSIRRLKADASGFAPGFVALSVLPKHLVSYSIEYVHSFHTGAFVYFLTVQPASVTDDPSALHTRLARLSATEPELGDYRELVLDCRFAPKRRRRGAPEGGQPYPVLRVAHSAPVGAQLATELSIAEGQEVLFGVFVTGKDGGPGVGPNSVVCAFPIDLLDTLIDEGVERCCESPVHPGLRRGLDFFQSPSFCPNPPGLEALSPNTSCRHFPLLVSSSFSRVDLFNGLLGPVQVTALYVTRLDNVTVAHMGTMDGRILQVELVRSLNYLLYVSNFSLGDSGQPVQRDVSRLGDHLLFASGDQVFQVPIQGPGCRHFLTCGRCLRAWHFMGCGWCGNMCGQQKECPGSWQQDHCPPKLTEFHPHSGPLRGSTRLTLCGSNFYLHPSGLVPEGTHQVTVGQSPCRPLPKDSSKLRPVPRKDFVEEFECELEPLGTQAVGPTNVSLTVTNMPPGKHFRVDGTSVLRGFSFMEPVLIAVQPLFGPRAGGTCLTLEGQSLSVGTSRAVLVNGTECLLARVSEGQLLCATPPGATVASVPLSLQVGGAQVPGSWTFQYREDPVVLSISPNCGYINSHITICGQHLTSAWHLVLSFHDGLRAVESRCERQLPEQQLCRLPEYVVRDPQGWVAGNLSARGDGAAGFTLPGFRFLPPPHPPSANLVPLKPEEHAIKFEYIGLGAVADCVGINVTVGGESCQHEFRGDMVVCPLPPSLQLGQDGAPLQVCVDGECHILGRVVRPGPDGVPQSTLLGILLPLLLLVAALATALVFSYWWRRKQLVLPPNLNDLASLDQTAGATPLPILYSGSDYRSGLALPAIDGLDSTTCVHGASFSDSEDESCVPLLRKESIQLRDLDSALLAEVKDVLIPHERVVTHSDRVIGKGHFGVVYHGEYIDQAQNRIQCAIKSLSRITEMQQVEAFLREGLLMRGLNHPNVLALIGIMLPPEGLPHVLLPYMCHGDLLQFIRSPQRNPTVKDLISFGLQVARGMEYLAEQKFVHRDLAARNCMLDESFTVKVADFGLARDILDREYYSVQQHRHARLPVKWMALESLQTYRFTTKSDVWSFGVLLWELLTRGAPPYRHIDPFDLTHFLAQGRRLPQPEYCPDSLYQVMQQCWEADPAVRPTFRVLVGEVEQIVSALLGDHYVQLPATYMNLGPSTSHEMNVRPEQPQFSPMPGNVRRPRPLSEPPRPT
Chain of cMET (P08581 25-1390): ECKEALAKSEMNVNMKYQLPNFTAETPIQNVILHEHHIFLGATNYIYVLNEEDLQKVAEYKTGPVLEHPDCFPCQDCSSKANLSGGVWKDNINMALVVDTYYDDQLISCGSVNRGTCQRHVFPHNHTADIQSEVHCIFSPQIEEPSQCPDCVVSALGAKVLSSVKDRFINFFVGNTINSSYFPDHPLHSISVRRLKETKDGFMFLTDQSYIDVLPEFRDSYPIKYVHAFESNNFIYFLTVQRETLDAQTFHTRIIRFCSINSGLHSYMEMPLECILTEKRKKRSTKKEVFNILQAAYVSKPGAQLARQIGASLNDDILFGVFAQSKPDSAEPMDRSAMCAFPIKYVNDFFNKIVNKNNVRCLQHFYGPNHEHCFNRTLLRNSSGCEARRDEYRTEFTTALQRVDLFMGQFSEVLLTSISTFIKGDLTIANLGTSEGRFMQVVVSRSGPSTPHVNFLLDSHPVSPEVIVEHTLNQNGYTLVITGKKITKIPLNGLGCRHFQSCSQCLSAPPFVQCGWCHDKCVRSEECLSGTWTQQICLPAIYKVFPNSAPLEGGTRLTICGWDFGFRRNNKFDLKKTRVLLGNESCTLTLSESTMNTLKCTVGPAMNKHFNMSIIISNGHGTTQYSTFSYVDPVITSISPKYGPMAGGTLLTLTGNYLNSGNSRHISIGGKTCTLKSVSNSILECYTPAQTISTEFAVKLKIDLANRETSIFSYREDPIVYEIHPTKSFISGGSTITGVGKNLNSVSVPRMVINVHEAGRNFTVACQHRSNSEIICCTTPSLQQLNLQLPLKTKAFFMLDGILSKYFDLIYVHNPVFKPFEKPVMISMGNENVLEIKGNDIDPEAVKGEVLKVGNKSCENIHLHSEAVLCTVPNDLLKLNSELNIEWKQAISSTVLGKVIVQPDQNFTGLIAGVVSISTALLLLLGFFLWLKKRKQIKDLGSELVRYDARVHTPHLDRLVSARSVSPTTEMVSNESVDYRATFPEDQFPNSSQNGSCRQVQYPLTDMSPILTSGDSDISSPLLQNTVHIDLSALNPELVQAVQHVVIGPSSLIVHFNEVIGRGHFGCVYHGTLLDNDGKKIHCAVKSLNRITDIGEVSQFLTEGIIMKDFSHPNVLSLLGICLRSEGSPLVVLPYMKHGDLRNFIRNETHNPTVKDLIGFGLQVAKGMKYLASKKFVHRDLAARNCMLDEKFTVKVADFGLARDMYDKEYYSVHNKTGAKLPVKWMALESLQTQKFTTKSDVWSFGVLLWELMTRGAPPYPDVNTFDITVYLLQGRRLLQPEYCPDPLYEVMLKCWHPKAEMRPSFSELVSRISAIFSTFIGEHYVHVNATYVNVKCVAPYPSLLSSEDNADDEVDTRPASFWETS

In the case of `CC(C)n1c(=O)[nH]c2nccc(Oc3ccc(NC(=O)c4cnn(-c5ccccc5F)c4C(F)(F)F)cc3F)c21` [Example 34, N-(3-fluoro-4-((1-isopropyl-2-oxo-2,3-dihydro-1H-imidazo[4,5-b]pyridine-7-yl)oxy)phenyl)-1-(2-fluorophenyl)-5-(trifluoromethyl)-1H-pyrazole-4-carboxamide], the 50% inhibitory concentration (IC50) was 500 to 5000 nM at cMET and less than 50 nM against RON.
In the same order, the values of `CC(C)n1c(=O)[nH]c2nccc(Oc3ccc(NC(=O)c4cnn(-c5ccccc5Cl)c4C(F)(F)F)cc3F)c21` [Example 35, 1-(2chlorophenyl)-N-(3-fluoro-4-((1-isopropyl-2-oxo-2,3-dihydro-1H-imidazo[4,5-b]pyridine-7-yl)oxy)phenyl)-5-(trifluoromethyl)-1H-pyrazole-4-carboxamide] are 500 to 5000 nM and less than 50 nM.
In the same order, the values of `CC(C)n1c(=O)[nH]c2nccc(Oc3ccc(NC(=O)c4cnn(-c5c(F)cccc5F)c4C(F)(F)F)cc3F)c21` [Example 36, 1-(2,6-difluorophenyl)-N-(3-fluoro-4-((1-isopropyl-2-oxo-2,3-dihydro-1H-imidazo[4,5-b]pyridine-7-yl)oxy)phenyl)-5-(trifluoromethyl)-1H-pyrazole-4-carboxamide] are 500 to 5000 nM and less than 50 nM.
Regarding `O=C(Nc1ccc(Oc2ccnc3[nH]c(=O)n(C4CCOCC4)c23)c(F)c1)c1cnn(-c2ccccc2)c1C(F)(F)F` [Example 37, N-(3-fluoro-4-((2-oxo-1-(tetrahydro-2H-pyran-4-yl)-2,3-dihydro-1H-imidazo[4,5-b]pyridine-7-yl)oxy)phenyl)-1-phenyl-5-(trifluoromethyl)-1H-pyrazole-4-carboxamide], the results for the IC50 on cMET and against RON were 500 to 5000 nM and 50 to 500 nM, respectively.
In the case of `O=C(Nc1ccc(Oc2ccnc3[nH]c(=O)n(C4CCOC4)c23)c(F)c1)c1cnn(-c2ccccc2)c1C(F)(F)F` (stereo not drawn) [Example 38, N-(3-fluoro-4-((2-oxo-1-(tetrahydrofuran-3-yl)-2,3-dihydro-1H-imidazo[4,5-b]pyridine-7-yl)oxy)phenyl)-1-phenyl-5-(trifluoromethyl)-1H-pyrazole-4-carboxamide], the results for the IC50 on cMET and at RON were 500 to 5000 nM and less than 50 nM, respectively.
The corresponding values for `CN1CCC(n2c(=O)[nH]c3nccc(Oc4ccc(NC(=O)c5cnn(-c6ccccc6)c5C(F)(F)F)cc4F)c32)CC1` [Example 39, N-(3-fluoro-4-((1-(1-methylpiperidine-4-yl)-2-oxo-2,3-dihydro-1H-imidazo[4,5-b]pyridine-7-yl)oxy)phenyl)-1-phenyl-5-(trifluoromethyl)-1H-pyrazole-4-carboxamide] are greater than 5000 nM and less than 50 nM.
The corresponding values for `CC(C)n1c(=O)[nH]c2nccc(Oc3ccc(NC(=O)c4ccn(-c5ccccc5)n4)cc3F)c21` [Example 40, N-(3-fluoro-4-((1-isopropyl-2-oxo-2,3-dihydro-1H-imidazo[4,5-b]pyridine-7-yl)oxy)phenyl)-1-phenyl-1H-pyrazole-3-carboxamide] are 500 to 5000 nM and 500 to 5000 nM.
The corresponding values for `CC(C)n1c(=O)[nH]c2nccc(Oc3ccc(NC(=O)c4cn(-c5ccccc5)nn4)cc3F)c21` [Example 41, N-(3-fluoro-4-((1-isopropyl-2-oxo-2,3-dihydro-1H-imidazo[4,5-b]pyridine-7-yl)oxy)phenyl)-1-phenyl-1H-1,2,3-triazole-4-carboxamide] are greater than 5000 nM and 500 to 5000 nM.
Take `Cc1c(C(=O)Nc2ccc(Oc3ccnc4[nH]c(=O)n(C(C)C)c34)c(F)c2)nnn1-c1ccccc1` [Example 42, N-(3-fluoro-4-((1-isopropyl-2-oxo-2,3-dihydro-1H-imidazo[4,5-b]pyridine-7-yl)oxy)phenyl)-5-methyl-1-phenyl-1H-1,2,3-triazole-4-carboxamide]: the half-inhibitory concentration (IC50) is greater than 5000 nM at cMET and 50 to 500 nM at RON.
